In patent US7709235B2, “5-Substituted hydantoin racemase, DNA encoding the same, recombinant DNA, transformed cell, and process for production of optically active N-carbamylamino acid or optically active amino acid” (priority 2005, dated 2010):
Positions count from the first letter of the chain named.

Tests used:
[1] = system: purified hydantoin racemase; test: Substrate specificity of purified hydantoin racemase; assay type: biochemical, Bacillus sp. KNK519HR; details: purified enzyme; activity for L-5-(2-methylthioethyl)hydantoin taken at 100; 30° C., Tris-HCl pH 7.5; substrate 4-50 mM
Experimental: (§1) Substrate specificity of purified hydantoin racemase was examined. First, 0.1 ml of purified hydantoin racemase obtained in Example 1 was added to each 0.9 ml of 50 mM Tris-HCl buffers (pH 7.5) containing 50 mM L-5-(2-methylthioethyl)hydantoin, 50 mM D-5-(2-methylthioethyl)hydantoin, 13 mM D-5-(1-mercapto-1-methyl)ethylhydantoin, 8 mM L-5-isobutylhydantoin, 50 mM L-5-(1-methylpropyl)hydantoin, and 4 mM L-5-benzylhydantoin, respectively. The mixtures were allowed to react at 30° C., and the reaction was terminated by adding 0.1 ml of 1N HCl. Except for the reaction using the substrate D-5-(1-mercapto-1-methyl)ethylhydantoin, the reaction was analyzed by diluting the supernatant of a centrifuged reaction mixture two times with ion exchange water, and by quantifying the D-5-substituted hydantoin compound generated in the reaction mixture, using HPLC. HPLC analysis was performed under the conditions given above. For the reaction using the substrate D-5-(1-mercapto-1-methyl)ethylhydantoin, the reaction mixture was analyzed by quantifying a sample that had been obtained by extracting the reaction mixture with 1 ml of ethyl acetate. Analysis was performed by performing HPLC under the following conditions. Column: CHIRALPAK AD-H (Daicel), eluent: hexane/isopropanol=9/1, flow rate: 1 ml/min., column temperature: 25° C., detection: 210 nm.

[2] = system: hydantoin racemase produced by Bacillus sp. KNK519HR; test: Substrate specificity with crude enzyme solution of Bacillus sp. KNK519HR (HPLC); assay type: biochemical; details: activity for L-5-isobutylhydantoin taken at 100, 30° C., pH 7.5, HPLC of D-hydantoin
Experimental: Substrate specificity of hydantoin racemase produced by Bacillus sp. KNK519HR was examined using a crude enzyme solution of Bacillus sp. KNK519HR that was produced according to the procedure described in Example 1. First, 0.1 ml of crude enzyme solution was added to each 0.9 ml of 50 mM Tris-HCl buffers (pH 7.5) containing 4 mM L-5-benzylhydantoin, 50 mM L-5-(2-methylthioethyl)hydantoin, and 8 mM L-5-isobutylhydantoin, respectively. The mixtures were allowed to react at 30° C., and the reaction was terminated by adding 0.1 ml of 1N HCl. The supernatant of a centrifuged reaction mixture was diluted two times with ion exchange water, and the D-5-substituted hydantoin compound generated in the reaction mixture was quantified by HPLC. HPLC analysis was performed under the following conditions. Column: Chirobiotic T (4.6 mm×250 mm, ASTEC Inc., eluent: 0.01% (v/v) Triethylamine acetate (pH 6.8)/methanol=9/1, flow rate: 0.7 ml/min., column temperature: 35° C., detection: 210 nm. Further, 0.1 ml of crude enzyme solution of Bacillus sp. KNK519HR was added to 0.9 ml of 50 mM Tris-HCl buffer (pH 7.5) containing 50 mM 5-methylhydantoin, together with recombinant Escherichia coli having D-form selective hydantoinase activity for 1 ml of culture solution (described later), and recombinant Escherichia coli having D-form selective N-carbamylamino acid amidohydrolase activity for 1 ml of culture solution. The mixture was allowed to react at 30° C., and the reaction was terminated by adding 0.1 ml of 1N HCl. After neutralization with 1N NaOH, the reaction mixture was centrifuged and the D-alanine generated in the supernatant was quantified by an enzyme method using D-amino acid oxydase and peroxydase.

[3] = system: hydantoin racemase enzyme solution of transformant; test: Substrate specificity of hydantoin racemase of transformant; assay type: biochemical, Escherichia coli HB101 (pBHR001); details: activity for L-5-(2-methylthioethyl)hydantoin taken at 100, method of Example 2
Experimental: as §1
Using the hydantoin racemase enzyme solution of transformant obtained in Example 7, substrate specificity was examined according to the method of Example 2. The result is shown in Table 4 as relative activities, taking the activity for L-5-(2-methylthioethyl)hydantoin at 100.

[4] = system: purified hydantoin racemase; test: Measurement of Km value (Lineweaver-Burk plot); assay type: biochemical, Bacillus sp. KNK519HR; details: FIG. 2
Experimental: A Km value for L-5-(2-methylthioethyl)hydantoin was determined from the Lineweaver-Burk plot.

[5] = target: T1, hydantoin racemase of Pseudomonas sp. (Pseudomonas sp., UniProt Q00924); details: Pseudomonas sp. enzyme; proportion of D-form at reaction time 10 minutes; L-5-(2-methylthioethyl)hydantoin = 100; cited from earlier work
T1 sequence (Q00924 1-249): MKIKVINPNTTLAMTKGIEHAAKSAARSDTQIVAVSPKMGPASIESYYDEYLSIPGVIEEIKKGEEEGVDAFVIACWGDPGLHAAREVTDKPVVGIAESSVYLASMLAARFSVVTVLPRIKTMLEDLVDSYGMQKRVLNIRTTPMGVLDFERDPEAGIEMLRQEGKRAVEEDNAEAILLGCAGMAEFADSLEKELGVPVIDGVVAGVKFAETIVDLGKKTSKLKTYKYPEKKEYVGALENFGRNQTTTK

[6] = system: hydantoin racemase produced by Bacillus sp. KNK519HR; test: Substrate specificity with crude enzyme solution coupled with D-hydantoinase and D-N-carbamylamino acid amidohydrolase, D-alanine quantified by enzyme method; assay type: biochemical; details: L-5-isobutylhydantoin = 100, 50 mM substrate
Experimental: Substrate specificity of hydantoin racemase produced by Bacillus sp. KNK519HR was examined using a crude enzyme solution of Bacillus sp. KNK519HR that was produced according to the procedure described in Example 1. First, 0.1 ml of crude enzyme solution was added to each 0.9 ml of 50 mM Tris-HCl buffers (pH 7.5) containing 4 mM L-5-benzylhydantoin, 50 mM L-5-(2-methylthioethyl)hydantoin, and 8 mM L-5-isobutylhydantoin, respectively. The mixtures were allowed to react at 30° C., and the reaction was terminated by adding 0.1 ml of 1N HCl. The supernatant of a centrifuged reaction mixture was diluted two times with ion exchange water, and the D-5-substituted hydantoin compound generated in the reaction mixture was quantified by HPLC. HPLC analysis was performed under the following conditions. […] After neutralization with 1N NaOH, the reaction mixture was centrifuged and the D-alanine generated in the supernatant was quantified by an enzyme method using D-amino acid oxydase and peroxydase.
Quantification of D-alanine by the enzyme method was performed as follows. […] The mixture was allowed to react for 90 minutes, and an absorbance at 555 nm was measured to quantity the D-alanine generated in the reaction mixture. […]

[7] = Hydantoin racemase activity of purified enzyme, HPLC quantification of D-5-(2-methylthioethyl)hydantoin generated; assay type: biochemical, Bacillus sp. KNK519HR; details: 30° C., 30 minutes, 50 mM Tris-HCl buffer (pH 7.5), 50 mM L-5-(2-methylthioethyl)hydantoin; 1 unit = 1 μmol D-form per minute
Experimental: In an embodiment of the present invention, the hydantoin racemase activity of the polypeptide can be measured by, for example, quantification of D-5-(2-methylthioethyl)hydantoin generated at 30° C. in 30 minutes in 50 mM Tris (tris(hydroxymethyl)aminomethane)-HCl buffer (pH 7.5) containing 50 mM L-5-(2-methylthioethyl)hydantoin, using high-performance liquid chromatography (HPLC) or the like.
The activity of the purified hydantoin racemase was determined by HPLC, by quantifying the amount of increase of D-5-(2-methylthioethyl)hydantoin generated at 30° C. in 30 minutes in a 50 mM Tris-HCl buffer (pH 7.5) containing 50 mM L-5-(2-methylthioethyl)hydantoin. HPLC analysis was performed under the following conditions. Column: Chirobiotic T (4.6 mm×250 mm, ASTEC Inc.), eluent: 0.01% (v/v) triethylamine acetate (pH 6.8)/methanol=9/1, flow rate: 0.7 ml/min., column temperature: 35° C., detection: 210 nm. Here, 1 unit was defined as the amount of enzyme that generated 1 μmol D-5-(2-methylthioethyl)hydantoin in one minute. Quantification of protein was performed according to the Lowry method, using BSA as a standard.

[8] = Effective temperature range, optimum temperature, effective pH range and optimum pH of the enzyme; assay type: biochemical, Bacillus sp. KNK519HR; details: FIG. 3, activity at 40° C. taken at 100%
Experimental: Assessment was made as to effective temperature range and optimum temperature. FIG. 3 represents relative activities at different temperatures, taking the activity at 40° C. at 100%. The optimum temperature of the enzyme was 40° C., and the enzyme desirably exerted its action at all temperatures in the evaluated temperature range of 25° C. to 65° C.
Assessment was made as to effective pH range and optimum pH. […] The enzyme exerted its action in a pH range of 6 to 10. The optimum pH range was 8 to 9.

[9] = Temperature stability and pH stability of the enzyme (remaining activity); assay type: physicochemical, Bacillus sp. KNK519HR; details: FIG. 5
Experimental: Temperature stability of enzyme was examined as the remaining activity after 30 minutes of processing at different temperatures.
pH stability was examined. FIG. 6 represents remaining activity of enzyme after processing the enzyme at 30° C. for 16 hours at different pH, taking the activity of untreated enzyme at 100%. The enzyme was relatively stable in a pH range of 4.5 to 8.0.

[10] = Substrate inhibition of hydantoin racemase (crude enzyme solution); assay type: biochemical, Bacillus sp. KNK519HR; details: L-5-(2-methylthioethyl)hydantoin as substrate between 50 mM and 80 mM; initial rate, 30° C., FIG. 7
Experimental: Substrate inhibition of the hydantoin racemase produced by Bacillus sp. KNK519HR was examined using the crude enzyme solution prepared in Example 1. In a reaction mixture of 0.1-ml crude enzyme solution and each 0.9-ml of 50 mM Tris-HCl buffers (pH 7.5) respectively containing 5, 10, 50, and 80 mM L-5-(2-methylthioethyl)hydantoin, respectively, the reaction was performed at 30° C. for 10, 20, 30, and 40 minutes. After the reaction, hydantoin racemase activity was abolished by adding 0.1 ml of 1N HCl. The supernatant of the centrifuged reaction mixture was diluted two times with ion exchange water, and the D-5-(2-methylthioethyl)hydantoin generated in the reaction mixture was quantified by HPLC. HPLC analysis was performed under the same conditions used in Example 3. An initial reaction rate was determined at each initial substrate concentration. FIG. 7 represents a relationship between relative activity and initial substrate concentration.

In the case of `CC(C)C[C@@H]1NC(=O)NC1=O` [L-5-isobutylhydantoin], the “Relative Activity” value [1] is reported as 173, the “Relative Activity” value [2] is reported as 100 and the “Relative Activity” value [3] is reported as 174.

For `CC(C)(S)C1NC(=O)NC1=O` [D-5-(1-mercapto-1-methyl)ethylhydantoin], the “Relative Activity” value [1] was 25 and the “Relative Activity” value [3] was 9.

For `O=C1NC(=O)[C@H](Cc2ccccc2)N1` [L-5-benzylhydantoin], the “Relative Activity” value [1] was 52, the “Relative Activity” value [2] was 35 and the “Relative Activity” value [3] was 35.

In the case of `CSCC[C@@H]1NC(=O)NC1=O` [L-5-(2-methylthioethyl)hydantoin], the Km [4] is reported as 304 µM, the “Relative Activity” value [1] is reported as 100 and the “Relative Activity” value [2] is reported as 61. For the same molecule, the “Relative Activity” value [3] was 100 and the Relative Activity [5] was 100.

In the case of `CSCC[C@H]1NC(=O)NC1=O` [D-5-(2-methylthioethyl)hydantoin], the “Relative Activity” value [1] is reported as 49 and the “Relative Activity” value [3] is reported as 52.

In the case of `C[C@@H]1NC(=O)NC1=O` [L-5-methylhydantoin], the “Relative Activity” value [6] is reported as 20.

In the case of `CCC(C)[C@@H]1NC(=O)NC1=O` (stereo partly drawn) [L-5-(1-methylpropyl)hydantoin], the “Relative Activity” value [1] is given as 2, the “Relative Activity” value [3] is given as 2 and the Relative Activity [5] is given as 132.

B1: purified hydantoin racemase: hydantoin racemase from Bacillus sp. KNK519HR, polypeptide with the amino acid sequence of SEQ ID NO: 1 (protein, listed as Bacillus sp.)
chain: T1 sequence (Q00924 1-249) with L138V, T212A, R243L
For B1, the specific activity [7] was 24.2 unit/mg protein, the optimum temperature [8] was 40 °C and the “remaining activity (temperature stability)” value ([9]; after 30 minutes of processing at 30° C.) was 80%. The “remaining activity (temperature stability)” value ([9]; after 30 minutes of processing at 70° C.) was “almost all activity was lost” and the substrate inhibition [10] was “had substrate inhibition”.
